Reference: US4539149A, “β-Lactam antibacterial agents” (Beecham Group p.l.c., priority 1981, dated 1985)
≈ marks a conversion by molar mass, not a printed value. Where a name gives a salt, the structure may show the parent alone.

System: P. mirabilis 889
Test: MIC against P. mirabilis 889
Assay type: cell-based
Conditions: P. mirabilis 889

Structure (SMILES)	MIC against P. mirabilis 889 [µg/mL]
CCN1CCN(C(=O)NC(C(=O)NC2(NC=O)C(=O)N3C(C(=O)[O-])C(C)(C)SC32)c2ccc(O)c(O)c2)C(=O)C1=O.[Na+] (stereo not drawn) [Example 33, 6β-[2-[(4-Ethyl-2,3-dioxopiperazin-1-yl)carbonylamino]-2-(3,4-dihydroxyphenyl)acetamido]6α-formamidopenicillanic acid, sodium salt]	0.2
CCN1CCN(C(=O)NC(C(=O)NC2(NC=O)C(=O)N3C(C(=O)[O-])=C(CSc4nnc(C)s4)CSC32)c2ccc(OC(C)=O)c(OC(C)=O)c2)C(=O)C1=O.[Na+] (stereo not drawn) [Example 68, 7β-[2-(3,4-Diacetoxyphenyl)-2-[(4-ethyl-2,3-dioxopiperazin-1-yl)carbonylamino]acetamido]-7α-formamido-3-[(2-methyl-1,3,4-thiadiazol-5-yl)thiomethyl]ceph-3-em-4-carboxylic acid, sodium salt]	0.1

Same assay, conditions: Proteus mirabilis, 889, P. mirabilis 889

MIC [µg/mL]	Structure (SMILES)
10	CC1(C)S[C@H]2N(C(=O)[C@@]2(NC=O)NC(=O)C(NC(=O)c2cc3ccccc3oc2=O)c2ccc(O)cc2)[C@H]1C(=O)O (stereo partly drawn) [Example 22, 6β-[2-[(Coumarin-3-yl)carbonylamino]-2-(4-hydroxyphenyl)acetamido]-6α-formamidopenicillanic acid, sodium salt]
0.1	CCN1CCN(C(=O)N[C@@H](C(=O)N[C@]2(NC=O)C(=O)N3C(C(=O)O)=C(COC(C)=O)CS[C@@H]32)c2cccs2)C(=O)C1=O [Example 44, 7β-[D-2-[(4-Ethyl-2,3-dioxopiperazin-1-yl)carbonylamino]-2-(thien-2-yl)acetamido]-7α-formamido-cephalosporanic acid, sodium salt]
0.25	CCN1CCN(C(=O)N[C@H](C(=O)N[C@]2(NC=O)C(=O)N3C(C(=O)O)=C(COC(C)=O)CS[C@@H]32)c2cccs2)C(=O)C1=O [Example 45, 7β-[L-2-[(4-Ethyl-2,3-dioxopiperazin-1-yl)carbonylamino]-2-(thien-2-yl)acetamido]-7α-formamidocephalosporanic acid, sodium salt]
25	CC(=O)OCC1=C(C(=O)O)N2C(=O)[C@@](NC=O)(NC(=O)CSCC#N)[C@H]2SC1 [Example 51, 7β-[2-(Cyanomethylthio)acetamido]-7α-formamidocephalosporanic acid, sodium salt]
2.5	CN(C(=O)N[C@@H](C(=O)N[C@]1(NC=O)C(=O)N2[C@@H](C(=O)O)C(C)(C)S[C@@H]21)c1ccccc1)C(=O)c1cccs1 [Example 13, 6α-Formamido-6β-[D-2-[3-methyl-3-(2-thienylcarbonyl)ureido]-2-phenylacetamido]penicillanic acid, sodium salt]
> 100	CC1(C)S[C@H]2N(C(=O)[C@@]2(NC=O)NC(=O)COc2ccccc2)[C@H]1C(=O)O [Example 1, 6α-Formamido-6β-phenoxyacetamido penicillanic acid sodium salt]
0.5	CC1(C)S[C@H]2N(C(=O)[C@@]2(NC=O)NC(=O)[C@H](NC(=O)Nc2cnc(Nc3ccc(S(N)(=O)=O)cc3)nc2O)c2ccc(O)cc2)[C@H]1C(=O)O [Example 19, 6β-[D-2-[3-[2-(4-Aminosulphonylphenyl)amino-4-hydroxypyrimidin-5-yl]ureido]-2-(4-hydroxyphenyl)acetamido]-6α-formamidopenicillanic acid, disodium salt]
50 (≈ 109 µM)	O=CN[C@@]1(NC(=O)Cc2cccs2)C(=O)N2C(C(=O)[O-])=C(C[n+]3ccccc3)CS[C@@H]21 [Example 60, 7α-Formamido-3-(pyridiniummethyl)-7β-(thien-2-ylacetamido)-ceph-3-em-4-carboxylate]
1	CN(C(=O)C=Cc1ccccc1)C(=O)N[C@@H](C(=O)N[C@]1(NC=O)C(=O)N2[C@@H](C(=O)O)C(C)(C)S[C@@H]21)c1ccccc1 [Example 10, 6α-Formamido-6β-[D-2-(3-cinnamoyl-3-methylureido)-2-phenylacetamido]penicillanic acid, sodium salt]
0.5	CCN1CCN(C(=O)N[C@H](C(=O)N[C@]2(NC=O)C(=O)N3[C@@H](C(=O)O)C(C)(C)S[C@@H]32)c2cccs2)C(=O)C1=O [Example 27, 6β-[L-2-[(4-Ethyl-2,3-dioxopiperazin-1-yl)carbonylamino]-2-(thien-2-yl)acetamido]-6α-formamidopenicillanic acid sodium salt]
2.5	CC1(C)S[C@H]2N(C(=O)[C@@]2(NC=O)NC(=O)[C@H](NC(=O)[C@@H](Cc2ccccc2)NC(N)=O)c2ccc(O)cc2)[C@H]1C(=O)O [Example 21, 6β-[D-2-(D-2-Carbamoylamino-3-phenylpropionamido)-2-(4-hydroxyphenyl)acetamido]-6α-formamidopenicillanic acid, sodium salt]
0.2	CCN1CCN(C(=O)N[C@@H](C(=O)N[C@]2(NC=O)C(=O)N3[C@@H](C(=O)O)C(C)(C)S[C@@H]32)c2ccccc2)C(=O)C1=O [Example 4, 6α-Formamido-6β-[D-2-[(4-ethyl-2,3-dioxopiperazin-1-yl)carbonylamino]-2-phenylacetamido]penicillanic acid, sodium salt]
2.5	CN(C(=O)C=Cc1ccccc1)C(=O)N[C@@H](C(=O)N[C@]1(NC=O)C(=O)N2[C@@H](C(=O)O)C(C)(C)S[C@@H]21)c1ccc(O)cc1 [Example 17, 6α-Formamido-6β-[D-2-(3-cinnamoyl-3-methylureido)-2-(4-hydroxyphenyl)acetamido]penicillanic acid, sodium salt]
0.5	CC1(C)S[C@H]2N(C(=O)[C@@]2(NC=O)NC(=O)[C@H](NC(=O)N2CCNC2=O)c2ccc(O)cc2)[C@H]1C(=O)O [Example 16, 6α-Formamido-6β-[D-2-(2-oxoimidazolidin-1-ylcarbonylamino)-2-(4-hydroxyphenyl)acetamido]penicillanic acid, sodium salt]
0.1	CC1(C)S[C@H]2N(C(=O)[C@@]2(NC=O)NC(=O)[C@H](NC(=O)N2CCN(S(C)(=O)=O)C2=O)c2ccc(O)cc2)[C@H]1C(=O)O [Example 24, 6α-Formamido-6β-[D-2-(4-hydroxyphenyl)-2-[(3-methylsulphonyl-2-oxoimidazolidin-1-yl)carbonylamino]acetamido]penicillanic acid, sodium salt]
25	Cc1nnc(SCC2=C(C(=O)O)N3C(=O)[C@@](NC=O)(NC(=O)Cc4cccs4)[C@H]3SC2)s1 [Example 56, 7α-Formamido-7β-[2-(thien-2-yl)acetamido]-3-[(2-methyl-1,3,4-thiadiazol-5-yl)thiomethyl]ceph-3-em-4-carboxylate acid, sodium salt]
30	CC(=O)OCC1=C(C(=O)O)N2C(=O)[C@@](NC=O)(NC(=O)/C(=N\OC(C)(C)C(=O)O)c3csc(N)n3)[C@H]2SC1 [Example 67, 7β-[(Z)-2-(2-Aminothiazol-4-yl)-2-(1-carboxy-1-methylethoxyimino)acetamido]-7α-formamidocephalosporanic acid disodium salt]
0.1	CCN1CCN(C(=O)N[C@@H](C(=O)N[C@]2(NC=O)C(=O)N3C(C(=O)O)=C(COC(C)=O)CS[C@@H]32)c2ccc(O)c(O)c2)C(=O)C1=O [Example 69, 7β-[D-2-[(4-Ethyl-2,3-dioxopiperazin-1-yl)carbonylamino]-2-(3,4-dihydroxyphenyl)acetamido]-7α-formamidocephalosporanic acid, sodium salt]
100	CC1(C)S[C@H]2N(C(=O)[C@@]2(NC=O)NC(=O)[C@H](NC(=O)Nc2cc3ccccc3oc2=O)c2ccc(O)cc2)[C@H]1C(=O)O [Example 47, 6β-[D-2-[3-(Coumarin-3-yl)ureido]-2-(4-hydroxyphenyl)acetamido]-6α-formamidopenicillanic acid, sodium salt]
1	CC(=O)OCC1=C(C(=O)O)N2C(=O)[C@@](NC=O)(NC(=O)[C@H](NC(=O)N3CCN(S(C)(=O)=O)C3=O)c3ccccc3)[C@H]2SC1 [Example 38, 7α-Formamido-7β-[D-2-[[3-(methylsulphonyl)-2-oxoimidazolidin-1-yl]carbonylamino]-2-phenylacetamido]cephalosporanic acid, sodium salt]
125	CCN1CCN(C(=O)N[C@H](C(=O)N[C@]2(NC=O)C(=O)N3[C@@H](C(=O)O)C(C)(C)S[C@@H]32)c2ccc(O)cc2)C(=O)C1=O [Example 6, 6α-Formamido-6β-[L-2-[(4-ethyl-2,3-dioxopiperazin-1-yl)carbonylamino]-2-(4-hydroxyphenyl)acetamido]penicillanic acid, sodium salt]
25	CC1(C)S[C@H]2N(C(=O)[C@@]2(NC=O)NC(=O)C(C(=O)O)c2ccsc2)[C@H]1C(=O)O (stereo partly drawn) [Example 3, 6α-Formamido-6β-[2-carboxy-2-(3-thienyl)acetamido]penicillanic acid, di-sodium salt]
50	CC1(C)S[C@H]2N(C(=O)[C@@]2(NC=O)NC(=O)[C@H](NC(=O)Nc2coc3ccccc3c2=O)c2ccc(O)cc2)[C@H]1C(=O)O [Example 48, 6β-[D-2-[3-(4-Oxo-4H-1-benzopyran-3-yl)ureido]-2-(4-hydroxyphenyl)acetamido]-6α-formamidopenicillanic acid, sodium salt]
50 (≈ 122 µM)	CC1(C)S[C@H]2N(C(=O)[C@@]2(NC=O)NC(=O)[C@H](N)c2ccc(O)cc2)[C@H]1C(=O)O [Example 9, 6α-Formamido-6β-[D-2-amino-2-(4-hydroxyphenyl)acetamido]penicillanic acid]

Structure (SMILES)	MIC [µg/mL]
CC(=O)Oc1ccc([C@@H](N)C(=O)N[C@]2(NC=O)C(=O)N3[C@@H](C(=O)O)C(C)(C)S[C@@H]32)cc1OC(C)=O [Example 64, 6β-[D-2-Amino-2-(3,4-diacetoxyphenyl)acetamido]-6α-formamido penicillanic acid]	100 (≈ 197 µM)
